Assay results published in patent US20250304596A1, “PYRAZINE DERIVATIVES AND USES THEREOF” (FOGHORN THERAPEUTICS INC., priority 2022, published 2025).

Tests used:
[1] = target: T1, HiBit-BRG1 fusion protein (Homo sapiens, UniProt P51532); experiment: HiBiT-BRG1 cell-based degradation assay (Nano-Glo HiBiT Lytic Detection, 24 h); settings: stable HeLa cell line expressing HiBit-BRG1 and LgBit; for Dmax: read-out: BRG1 HiBit Degradation Maximum (%); for DC50: read-out: BRMG1 HiBit Degradation IC50
T1 construct: expressed in transfected cells
T1 sequence (P51532 whole entry, the tested form may be a part): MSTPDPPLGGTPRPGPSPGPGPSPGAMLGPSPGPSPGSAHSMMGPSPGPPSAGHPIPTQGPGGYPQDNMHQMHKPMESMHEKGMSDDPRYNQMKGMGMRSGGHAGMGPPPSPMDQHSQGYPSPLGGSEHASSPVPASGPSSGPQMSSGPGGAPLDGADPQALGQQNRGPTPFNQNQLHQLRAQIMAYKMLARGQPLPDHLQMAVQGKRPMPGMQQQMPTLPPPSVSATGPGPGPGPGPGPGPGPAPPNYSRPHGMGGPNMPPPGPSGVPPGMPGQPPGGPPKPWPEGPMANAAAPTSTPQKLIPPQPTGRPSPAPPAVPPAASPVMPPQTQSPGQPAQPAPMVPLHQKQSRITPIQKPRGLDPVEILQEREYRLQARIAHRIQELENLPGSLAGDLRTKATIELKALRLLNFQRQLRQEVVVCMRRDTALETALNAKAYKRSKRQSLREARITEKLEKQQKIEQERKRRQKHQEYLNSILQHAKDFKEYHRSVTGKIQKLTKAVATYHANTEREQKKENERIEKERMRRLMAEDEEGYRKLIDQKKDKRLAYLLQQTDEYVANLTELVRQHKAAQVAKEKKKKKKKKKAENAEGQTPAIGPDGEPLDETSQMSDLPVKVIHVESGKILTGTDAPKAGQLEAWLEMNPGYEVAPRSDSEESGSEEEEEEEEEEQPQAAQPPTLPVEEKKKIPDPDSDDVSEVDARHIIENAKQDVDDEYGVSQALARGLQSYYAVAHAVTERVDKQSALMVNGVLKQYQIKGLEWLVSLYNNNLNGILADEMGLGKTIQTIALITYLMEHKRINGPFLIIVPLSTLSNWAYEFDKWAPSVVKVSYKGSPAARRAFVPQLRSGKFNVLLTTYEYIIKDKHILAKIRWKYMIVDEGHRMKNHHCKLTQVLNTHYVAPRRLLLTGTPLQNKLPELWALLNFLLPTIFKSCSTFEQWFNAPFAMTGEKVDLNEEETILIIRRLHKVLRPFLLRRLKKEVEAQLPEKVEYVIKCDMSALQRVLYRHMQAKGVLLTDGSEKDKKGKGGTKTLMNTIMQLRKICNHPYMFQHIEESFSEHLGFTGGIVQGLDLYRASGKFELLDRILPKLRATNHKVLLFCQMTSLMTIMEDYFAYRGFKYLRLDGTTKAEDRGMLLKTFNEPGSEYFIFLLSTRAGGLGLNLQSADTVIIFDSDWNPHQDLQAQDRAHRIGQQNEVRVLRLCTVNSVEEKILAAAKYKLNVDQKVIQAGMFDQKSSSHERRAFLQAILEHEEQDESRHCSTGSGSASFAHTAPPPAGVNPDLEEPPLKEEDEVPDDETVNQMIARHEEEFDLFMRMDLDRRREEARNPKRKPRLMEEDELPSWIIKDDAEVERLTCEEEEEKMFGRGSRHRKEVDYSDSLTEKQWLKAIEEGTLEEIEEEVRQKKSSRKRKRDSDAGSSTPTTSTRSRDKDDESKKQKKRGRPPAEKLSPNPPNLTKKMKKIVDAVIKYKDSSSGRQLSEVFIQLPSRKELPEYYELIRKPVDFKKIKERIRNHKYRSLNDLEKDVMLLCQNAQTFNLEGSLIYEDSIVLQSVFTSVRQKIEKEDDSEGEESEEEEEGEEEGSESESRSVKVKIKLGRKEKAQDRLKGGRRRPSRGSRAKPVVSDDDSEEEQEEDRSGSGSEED
Outline: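 Degradation read by lytic NanoBiT luminescence after 24 h compound exposure of a stable HiBit-BRG1/LgBit HeLa line. Ten-point, 3-fold series in duplicate, top final dose 30 μM; DMSO and 2 μM standard degrader define 0% and 100% degradation.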

[2] = target: T2, HiBit-BRM fusion protein (Homo sapiens, UniProt P51531); experiment: HiBiT-BRM cell-based degradation assay (Nano-Glo HiBiT Lytic Detection, 24 h); settings: stable HeLa cell line expressing HiBiT-BRM; for DC50: read-out: BRM HiBit Degradation IC50
T2 construct: expressed in transfected cells
T2 sequence (P51531 whole entry, the tested form may be a part): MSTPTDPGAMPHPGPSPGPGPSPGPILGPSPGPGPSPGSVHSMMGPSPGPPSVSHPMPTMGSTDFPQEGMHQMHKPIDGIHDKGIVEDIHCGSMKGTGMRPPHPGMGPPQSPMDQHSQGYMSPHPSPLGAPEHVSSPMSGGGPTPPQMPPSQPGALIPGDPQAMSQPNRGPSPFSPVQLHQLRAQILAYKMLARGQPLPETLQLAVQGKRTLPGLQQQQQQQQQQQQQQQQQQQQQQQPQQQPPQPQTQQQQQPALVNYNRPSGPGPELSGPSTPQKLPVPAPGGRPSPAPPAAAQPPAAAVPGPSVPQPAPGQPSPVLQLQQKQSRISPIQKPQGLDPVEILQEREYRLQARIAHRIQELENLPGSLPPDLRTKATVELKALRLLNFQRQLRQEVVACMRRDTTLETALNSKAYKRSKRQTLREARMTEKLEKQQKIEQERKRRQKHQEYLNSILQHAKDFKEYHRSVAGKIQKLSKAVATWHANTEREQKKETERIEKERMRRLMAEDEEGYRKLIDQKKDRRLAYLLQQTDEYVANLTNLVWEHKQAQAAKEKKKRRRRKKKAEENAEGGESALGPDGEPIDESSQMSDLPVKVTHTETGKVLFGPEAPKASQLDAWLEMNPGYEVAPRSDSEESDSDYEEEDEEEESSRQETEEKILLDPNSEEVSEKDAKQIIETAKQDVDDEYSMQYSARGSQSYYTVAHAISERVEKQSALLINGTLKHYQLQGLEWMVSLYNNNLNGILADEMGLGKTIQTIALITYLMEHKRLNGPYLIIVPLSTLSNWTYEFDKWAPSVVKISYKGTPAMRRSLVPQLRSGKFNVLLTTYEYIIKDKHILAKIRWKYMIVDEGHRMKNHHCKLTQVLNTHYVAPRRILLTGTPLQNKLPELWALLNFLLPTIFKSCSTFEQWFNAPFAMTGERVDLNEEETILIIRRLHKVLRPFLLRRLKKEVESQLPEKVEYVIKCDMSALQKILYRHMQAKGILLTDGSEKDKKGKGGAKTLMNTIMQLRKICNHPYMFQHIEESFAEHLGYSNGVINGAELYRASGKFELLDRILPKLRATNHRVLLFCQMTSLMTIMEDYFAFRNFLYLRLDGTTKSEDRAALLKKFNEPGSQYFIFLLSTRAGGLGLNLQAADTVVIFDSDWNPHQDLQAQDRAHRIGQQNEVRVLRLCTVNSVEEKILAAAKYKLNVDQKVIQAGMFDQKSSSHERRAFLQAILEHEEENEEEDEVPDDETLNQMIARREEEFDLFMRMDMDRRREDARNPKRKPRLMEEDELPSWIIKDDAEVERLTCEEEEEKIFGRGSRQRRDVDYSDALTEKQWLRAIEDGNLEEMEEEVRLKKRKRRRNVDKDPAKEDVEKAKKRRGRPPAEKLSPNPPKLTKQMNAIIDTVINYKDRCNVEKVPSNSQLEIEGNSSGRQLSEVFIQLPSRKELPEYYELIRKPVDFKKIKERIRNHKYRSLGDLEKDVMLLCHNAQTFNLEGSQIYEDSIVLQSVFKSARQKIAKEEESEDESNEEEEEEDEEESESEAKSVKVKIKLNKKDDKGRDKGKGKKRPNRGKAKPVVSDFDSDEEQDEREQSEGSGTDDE
Outline: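 Luminescence from LgBiT complementation after lysis measured HiBiT-BRM levels in stably expressing HeLa cells. Compounds were dosed at up to 30 μM final, in 3-fold 10-point dilutions, for 24 h. Percent degradation was scaled between DMSO wells and wells treated with 2 μM standard BRM/BRG1 degrader.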

Row | SMILES | Dmax [1] | BRM HiBit Degradation Maximum (%) [2] | DC50 [2] | DC50 [1]
1 | Cc1ncsc1-c1ccc([C@H](C)NC(=O)[C@@H]2C[C@@H](O)CN2C(=O)[C@@H](c2cc(N3C[C@@H]4[C@H](C3)[C@H]4c3cc4nnc(-c5ccccc5O)cc4s3)no2)C(C)C)cc1 [Compound 70, (2S,4R)-4-hydroxy-1-((2R)-2-(3-((1R,5S)-6-(3-(2-hydroxyphenyl)thieno[3,2-c]pyridazin-6-yl)-3-azabicyclo[3.1.0]hexan-3-yl)isoxazol-5-yl)-3-methylbutanoyl)-N-((S)-1-(4-(4-methylthiazol-5-yl)phenyl)ethyl)pyrrolidine-2-carboxamide] | < 50% | B (“B” indicates maximum degradation ≥50%) | < 10 nM | 
2 | Cc1ncsc1-c1ccc([C@H](C)NC(=O)[C@@H]2C[C@@H](O)CN2C(=O)[C@@H](c2cc(-c3cnc(N4CC[C@@H](c5cc6nnc(-c7ccccc7O)cc6s5)C4)nc3)no2)C(C)C)cc1 [Compound 82, (2S,4R)-4-hydroxy-1-((R)-2-(3-(2-((R)-3-(3-(2-hydroxyphenyl)thieno[3,2-c]pyridazin-6-yl)pyrrolidin-1-yl)pyrimidin-5-yl)isoxazol-5-yl)-3-methylbutanoyl)-N-((S)-1-(4-(4-methylthiazol-5-yl)phenyl)ethyl)pyrrolidine-2-carboxamide] | > 50% | A (“A” indicates maximum degradation ≥75%) | < 10 nM | > 10 nM
3 | Cc1ncsc1-c1ccc([C@H](C)NC(=O)[C@@H]2C[C@@H](O)CN2C(=O)[C@@H](c2cc(-c3cnc(N4C[C@H]5C[C@@H]4C[C@H]5c4cc5cc(-c6ccccc6O)nnc5s4)nc3)no2)C(C)C)cc1 [Compound 13, (2S,4R)-4-hydroxy-1-((R)-2-(3-(2-((1R,4S,5R)-5-(3-(2-hydroxyphenyl)thieno[2,3-c]pyridazin-6-yl)-2-azabicyclo[2.2.1]heptan-2-yl)pyrimidin-5-yl)isoxazol-5-yl)-3-methylbutanoyl)-N-((S)-1-(4-(4-methylthiazol-5-yl)phenyl)ethyl)pyrrolidine-2-carboxamide] | < 50% | C (“C” indicates maximum degradation <50%) | > 1000 nM | > 1000 nM
4 | Cc1ncsc1-c1ccc([C@H](C)NC(=O)[C@@H]2C[C@@H](O)CN2C(=O)[C@@H](c2cc(N3CCN(c4ncc(-c5sc6nnc(-c7ccccc7O)cc6c5C)cn4)CC3)no2)C(C)C)cc1 (single isomer, unassigned) [Compound 31] | < 50% | B (“B” indicates maximum degradation ≥50%) | > 10 nM | > 1000 nM
5 | Cc1ncsc1-c1ccc([C@H](C)NC(=O)[C@@H]2C[C@@H](O)CN2C(=O)[C@@H](c2cc(-c3cnc(N4CC[C@H](c5cc6cc(-c7ccccc7O)nnc6s5)C4)nc3)no2)C(C)C)cc1 [Compound 6, (2S,4R)-4-hydroxy-1-((R)-2-(3-(2-((S)-3-(3-(2-hydroxyphenyl)thieno[2,3-c]pyridazin-6-yl)pyrrolidin-1-yl)pyrimidin-5-yl)isoxazol-5-yl)-3-methylbutanoyl)-N-((S)-1-(4-(4-methylthiazol-5-yl)phenyl)ethyl)pyrrolidine-2-carboxamide] | < 50% | A (“A” indicates maximum degradation ≥75%) | < 10 nM | > 1000 nM
6 | Cc1ncsc1-c1ccc([C@H](C)NC(=O)[C@@H]2C[C@@H](O)CN2C(=O)[C@@H](c2cc(-c3cnc(N4CC[C@@H](c5sc6nnc(-c7ccccc7O)cc6c5C)[C@H](C)C4)nc3)no2)C(C)C)cc1 [Compound 25, (2S,4R)-4-hydroxy-1-((R)-2-(3-(2-((3S,4R)-4-(3-(2-hydroxyphenyl)-5-methylthieno[2,3-c]pyridazin-6-yl)-3-methylpiperidin-1-yl)pyrimidin-5-yl)isoxazol-5-yl)-3-methylbutanoyl)-N-((S)-1-(4-(4-methylthiazol-5-yl)phenyl)ethyl)pyrrolidine-2-carboxamide] | < 50% | A (“A” indicates maximum degradation ≥75%) | > 10 nM | > 1000 nM
7 | Cc1ncsc1-c1ccc([C@H](C)NC(=O)[C@@H]2C[C@@H](O)CN2C(=O)[C@@H](c2cc(-c3cnc(N4CC[C@H](c5sc6nnc(-c7ccccc7O)cc6c5C)C4)nc3)no2)C(C)C)cc1 [Compound 41, (2S,4R)-4-hydroxy-1-((R)-2-(3-(2-((S)-3-(3-(2-hydroxyphenyl)-5-methylthieno[2,3-c]pyridazin-6-yl)pyrrolidin-1-yl)pyrimidin-5-yl)isoxazol-5-yl)-3-methylbutanoyl)-N-((S)-1-(4-(4-methylthiazol-5-yl)phenyl)ethyl)pyrrolidine-2-carboxamide] | < 50% | A (“A” indicates maximum degradation ≥75%) | < 10 nM | > 1000 nM
8 | Cc1ncsc1-c1ccc([C@H](C)NC(=O)[C@@H]2C[C@@H](O)CN2C(=O)[C@@H](c2cc(N3CCC4(CC3)CC(c3cc5nnc(-c6ccccc6O)cc5s3)C4)no2)C(C)C)cc1 [Compound 12, (2S,4R)-4-hydroxy-1-((R)-2-(3-(2-(3-(2-hydroxyphenyl)thieno[3,2-c]pyridazin-6-yl)-7-azaspiro[3.5]nonan-7-yl)isoxazol-5-yl)-3-methylbutanoyl)-N—((S)-1-(4-(4-methylthiazol-5-yl)phenyl)ethyl)pyrrolidine-2-carboxamide] | > 50% | A (“A” indicates maximum degradation ≥75%) | < 10 nM | > 100 nM
9 | Cc1ncsc1-c1ccc([C@H](C)NC(=O)[C@@H]2C[C@@H](O)CN2C(=O)[C@@H](c2cc(N3CC4(C3)CN(c3cc5cc(-c6ccccc6O)nnc5s3)C4)no2)C(C)C)cc1 [Compound 68, (2S,4R)-4-hydroxy-1-((R)-2-(3-(6-(3-(2-hydroxyphenyl)thieno[2,3-c]pyridazin-6-yl)-2,6-diazaspiro[3.3]heptan-2-yl)isoxazol-5-yl)-3-methylbutanoyl)-N-((S)-1-(4-(4-methylthiazol-5-yl)phenyl)ethyl)pyrrolidine-2-carboxamide] | < 50% | A (“A” indicates maximum degradation ≥75%) | < 10 nM | 
10 | Cc1ncsc1-c1ccc([C@H](C)NC(=O)[C@@H]2C[C@@H](O)CN2C(=O)[C@@H](c2cc(C#Cc3sc4nnc(-c5ccccc5O)cc4c3C)no2)C(C)C)cc1 (single isomer, unassigned) [Compound 37] | > 50% | A (“A” indicates maximum degradation ≥75%) | > 100 nM | > 1000 nM
11 | Cc1ncsc1-c1ccc([C@H](C)NC(=O)[C@@H]2C[C@@H](O)CN2C(=O)[C@@H](c2cc(-c3cnc(N4CC[C@H](c5sc6nnc(-c7ccccc7O)cc6c5C5CC5)C4)nc3)no2)C(C)C)cc1 [Compound 76, (2S,4R)-1-((R)-2-(3-(2-((S)-3-(5-cyclopropyl-3-(2-hydroxyphenyl)thieno[2,3-c]pyridazin-6-yl)pyrrolidin-1-yl)pyrimidin-5-yl)isoxazol-5-yl)-3-methylbutanoyl)-4-hydroxy-N-((S)-1-(4-(4-methylthiazol-5-yl)phenyl)ethyl)pyrrolidine-2-carboxamide] | < 50% | A (“A” indicates maximum degradation ≥75%) | < 10 nM | 
12 | Cc1cc(-c2cc([C@H](C(=O)N3C[C@H](O)C[C@H]3C(=O)N[C@@H](C)c3ccc(-c4scnc4C)cc3)C(C)C)on2)cnc1N1CCC(c2cc3cc(-c4ccccc4O)nnc3s2)CC1 (single isomer, unassigned) [Compound 2] | < 50% | A (“A” indicates maximum degradation ≥75%) | > 10 nM | > 1000 nM
13 | Cc1ncsc1-c1ccc([C@H](C)NC(=O)[C@@H]2C[C@@H](O)CN2C(=O)[C@@H](c2cc(N3CCC4(CC3)CC(c3sc5nnc(-c6ccccc6O)cc5c3C)C4)no2)C(C)C)cc1 [Compound 45, (2S,4R)-4-hydroxy-1-((R)-2-(3-(2-(3-(2-hydroxyphenyl)-5-methylthieno[2,3-c]pyridazin-6-yl)-7-azaspiro[3.5]nonan-7-yl)isoxazol-5-yl)-3-methylbutanoyl)-N-((S)-1-(4-(4-methylthiazol-5-yl)phenyl)ethyl)pyrrolidine-2-carboxamide] | < 50% | A (“A” indicates maximum degradation ≥75%) | > 10 nM | > 1000 nM
14 | Cc1ncsc1-c1ccc([C@H](C)NC(=O)[C@@H]2C[C@@H](O)CN2C(=O)[C@@H](c2cc(-c3cnc(N4CCC(O)(c5sc6nnc(-c7ccccc7O)cc6c5C)CC4)nc3)no2)C(C)C)cc1 [Compound 52, (2S,4R)-4-hydroxy-1-((R)-2-(3-(2-(4-hydroxy-4-(3-(2-hydroxyphenyl)-5-methylthieno[2,3-c]pyridazin-6-yl)piperidin-1-yl)pyrimidin-5-yl)isoxazol-5-yl)-3-methylbutanoyl)-N-((S)-1-(4-(4-methylthiazol-5-yl)phenyl)ethyl)pyrrolidine-2-carboxamide] | < 50% | B (“B” indicates maximum degradation ≥50%) | > 10 nM | > 1000 nM
